The results in this text go back to patent publication US20230086703A1, “N-(4-(5-chloropyridin-3-yl)phenyl)-2-(2-(cyclopropanesulfonamido)pyrimidin-4-yl) butanamide derivatives and related compounds as human CTPS1 inhibitors for the treatment of proliferative diseases” (Step Pharma S.A.S., priority 2019, published 2023).

Molecules are shown by their SMILES. Read-outs that look alike come from different tables or passages of the source.

The target of experiment [1] is T1, human CTPS1 (Homo sapiens, UniProt P17812).
T1 construct: FLAG (with GG linker); His8 (with GG linker); purchased Proteros biostructures GmbH
T1 sequence (P17812 1-591): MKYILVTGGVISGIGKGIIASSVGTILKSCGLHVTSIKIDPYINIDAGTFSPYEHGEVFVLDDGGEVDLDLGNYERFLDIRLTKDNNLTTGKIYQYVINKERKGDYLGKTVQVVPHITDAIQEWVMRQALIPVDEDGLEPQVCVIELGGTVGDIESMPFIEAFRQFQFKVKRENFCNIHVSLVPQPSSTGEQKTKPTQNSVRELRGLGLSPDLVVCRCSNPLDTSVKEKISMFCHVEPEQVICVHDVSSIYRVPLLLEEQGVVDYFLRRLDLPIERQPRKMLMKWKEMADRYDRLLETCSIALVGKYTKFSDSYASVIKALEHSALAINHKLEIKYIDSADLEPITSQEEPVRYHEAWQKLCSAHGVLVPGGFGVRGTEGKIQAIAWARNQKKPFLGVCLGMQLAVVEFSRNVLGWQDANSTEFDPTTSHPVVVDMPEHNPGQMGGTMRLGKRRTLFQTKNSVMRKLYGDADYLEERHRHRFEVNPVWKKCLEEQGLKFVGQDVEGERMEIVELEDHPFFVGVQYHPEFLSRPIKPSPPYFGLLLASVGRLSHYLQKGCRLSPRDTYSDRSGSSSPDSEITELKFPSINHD
Description: Human CTPS1 enzyme inhibition, ADP-Glo Max assay. The class given is biochemical. Put shortly: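 Read-out is ADP-Glo Max luminescence: residual ATP depleted (60 min), then produced ADP converted back to ATP for luciferase detection (60 min). Beforehand, protein and compound were mixed for 10 min at 25 °C in Tris buffer pH 8.0 with MgCl2, Tween-20 and 2 mM L-cysteine. Results expressed as percentage inhibition per concentration.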

Experiment [2] has as its target T1, human CTPS1. Description: RapidFire/MS-based enzyme selectivity assay (human CTPS1 versus CTPS2), CTPS1 isoform. The class given is biochemical. Conditions: RapidFire/MS IC50 values of CTPS1 and CTPS2. Put shortly: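 Full-length C-terminal FLAG-His-tagged CTPS1 (1-591) was preincubated 10 min at 25 °C with compound in HEPES pH 8.0 buffer with MgCl2, KCl, DTT and Tween-20. Reactions were started with a 2× mix of ATP 0.3 mM, UTP 0.2 mM, GTP 0.07 mM and L-glutamine 0.1 mM, and run in the linear phase at 25 °C. IC50 comes from the RapidFire-MS ratio of CTP to 13C9-15N3-CTP.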

[3] abbreviates: Table 12, ADP-Glo Max assay, read-out: CTPS1 (Human CTPS1 Enzyme Inhibition data grouped by potency range).

`CCOc1cncc(-c2ccc(NC(=O)C3(c4ccnc(NS(=O)(=O)C5CC5)n4)CCC(N4CCCC4)CC3)nc2)n1` (stereo not drawn) [P303]: at human CTPS1 [1] (setting [3]), the IC50 is 100 to 1000 nM. The “Selectivity (fold selectivity between CTPS1 and CTPS2)” value at human CTPS1 [2] (Table 17) was “+++ (>60 fold (+++))”.
With `CCOc1cncc(-c2ccc(NC(=O)C3(c4cncc(NS(=O)(=O)C5CC5)n4)CCN(S(C)(=O)=O)CC3)nc2)n1` [P314], the IC50 at human CTPS1 [1] (setting [3]) is less than 100 nM. Besides, at human CTPS1 [2] (Table 17), the “Selectivity (fold selectivity between CTPS1 and CTPS2)” value is recorded as “+++ (>60 fold (+++))”.
For `CCOc1cncc(-c2ccc(NC(=O)C3(c4nccc(NS(=O)(=O)C5CC5)n4)CCN(S(C)(=O)=O)CC3)nc2)n1` [P316], in that order: less than 100 nM and “+++ (>60 fold (+++))”.
In the case of `CCOc1cncc(-c2ccc(NC(=O)C3(c4ccnc(NS(=O)(=O)CC)n4)CCN(S(C)(=O)=O)CC3)nc2)n1` [P297], the IC50 on human CTPS1 [1] (setting [3]) is less than 100 nM. Besides, the “Selectivity (fold selectivity between CTPS1 and CTPS2)” value at human CTPS1 [2] (Table 17) is listed as “+++ (>60 fold (+++))”.
Consider `CCOc1cncc(-c2ccc(NC(=O)C3(c4ccnc(NS(=O)(=O)CC)n4)CCN(S(=O)(=O)CC)CC3)nc2)n1` [P298], for which the IC50 at human CTPS1 [1] (setting [3]) is less than 100 nM. At human CTPS1 [2] (Table 17), the “Selectivity (fold selectivity between CTPS1 and CTPS2)” value is listed as “+++ (>60 fold (+++))”.
On to `CCOc1cncc(-c2ccc(NC(=O)C3(c4ccnc(NS(=O)(=O)C5CC5)n4)CCC(N(C)CCOC)CC3)nc2)n1` (stereo not drawn) [P308], for which the IC50 on human CTPS1 [1] (setting [3]) is less than 100 nM. Further, at human CTPS1 [2] (Table 17), the “Selectivity (fold selectivity between CTPS1 and CTPS2)” value was “+++ (>60 fold (+++))”.
For `CCOc1cncc(-c2ccc(NC(=O)C(F)(CC)c3ccnc(NS(=O)(=O)C4CC4)n3)nc2)n1` (stereo not drawn) [P112, 2-(2-(Cyclopropanesulfonamido)pyrimidin-4-yl)-N-(5-(6-ethoxypyrazin-2-yl)pyridin-2-yl)-2-fluorobutanamide], the IC50 at human CTPS1 [1] (ADP-Glo Max assay, human full length CTPS1, read-out: CTPS1 (Human CTPS1 Enzyme Inhibition data grouped by potency range, IC50)) was less than 100 nM. Also, on human CTPS1 [2] (Table 15), the “Selectivity (fold selectivity between CTPS1 and CTPS2)” value is “++ (>30-60 fold (++))”.
For `CCOc1cncc(-c2ccc(NC(=O)C3(c4ccnc(NS(=O)(=O)C5CC5)n4)CCC(N4CCOCC4)CC3)nc2)n1` (stereo not drawn) [P306], at human CTPS1 [1] (setting [3]), the IC50 was less than 100 nM. Further, the “Selectivity (fold selectivity between CTPS1 and CTPS2)” value at human CTPS1 [2] (Table 17) is “+++ (>60 fold (+++))”.
On to `CCOc1cncc(-c2ccc(NC(=O)C3(c4ccnc(NS(=O)(=O)C5CC5)n4)CCC(N4CCN(C)CC4)CC3)nc2)n1` (stereo not drawn) [P312], for which, at human CTPS1 [1] (setting [3]), the IC50 was less than 100 nM. Moreover, on human CTPS1 [2] (Table 17), the “Selectivity (fold selectivity between CTPS1 and CTPS2)” value is given as “+++ (>60 fold (+++))”.
Take `CCOc1cncc(-c2ccc(NC(=O)C3(c4ccnc(NS(=O)(=O)C5CC5)n4)CCC(N(C)C)CC3)nc2)n1` (single isomer, unassigned) [P230, 1-(2-(cyclopropanesulfonamido)pyrimidin-4-yl)-4-(dimethylamino)-N-(5-(6-ethoxypyrazin-2-yl)pyridin-2-yl)cyclohexane-1-carboxamide]: the IC50 at human CTPS1 [1] (setting [3]) is 1000 to 10000 nM. Besides, the “Selectivity (fold selectivity between CTPS1 and CTPS2)” value on human CTPS1 [2] (Table 17) is recorded as “+ (2-30 fold (+))”.
In the same order, the values of `CCOc1cncc(-c2ccc(NC(=O)C3(c4ccnc(NS(=O)(=O)CC)n4)CCN(S(=O)(=O)c4ccn(C)n4)CC3)nc2)n1` [P300] are less than 100 nM and “+++ (>60 fold (+++))”.
Take `CCOc1cncc(-c2ccc(NC(=O)C3(c4ccnc(NS(=O)(=O)C5CC5)n4)CCN(S(=O)(=O)c4ccn(C)n4)CC3)nc2)n1` [P293]: the IC50 on human CTPS1 [1] (setting [3]) is less than 100 nM. In addition, at human CTPS1 [2] (Table 17), the “Selectivity (fold selectivity between CTPS1 and CTPS2)” value was “+++ (>60 fold (+++))”.
